In this test the target is Sonic hedgehog protein (Mus musculus, UniProt Q62226). The test can be described thus: Activation of Shh in mouse Shh Light2 cells after 30 hrs by luciferase reporter gene assay.

Structures are written as SMILES.

As a reminder, the EC50 is the midpoint of the concentration-response curve. Higher therefore signals a need for much substance.

Sequence of Sonic hedgehog protein (Q62226 25-198 limits assumed): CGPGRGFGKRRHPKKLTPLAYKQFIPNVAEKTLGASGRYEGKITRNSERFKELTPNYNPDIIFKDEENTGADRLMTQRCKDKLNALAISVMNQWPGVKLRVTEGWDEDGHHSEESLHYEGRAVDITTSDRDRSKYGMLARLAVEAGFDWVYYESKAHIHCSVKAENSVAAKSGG

`c1ccc2c(Oc3nc(Nc4ccc(N5CCOCC5)cc4)c4ncn(C5CCCCC5)c4n3)cccc2c1` [Purmorphamine]: the EC50 amounted to 1000 nM.

Values taken from BindingDB's records for doi:10.1038/nchembio753 (Stanford University School of Medicine, 2006).
